Common to all, as to assay: DTP human tumour cell line panel, 48 h
In experiment [1] the test system is A549 NSCLC.
Experiment [2] has as its system SNB-19 CNS.
Experiment [3] deals with HT29 colon.
For experiment [4], the system named is SF-268 CNS.
For experiment [5], the system named is UO-31 renal.
Experiment [6] concerns TK-10 renal.
Experiment [7] concerns SK-OV-3 ovarian.
The test system of experiment [8] is OVCAR-3 ovarian.
Experiment [9] has as its system MALME-3M melanoma.
Experiment [10] has as its system OVCAR-8 ovarian.
The subject of experiment [11] is IGROV1 ovarian.
Experiment [12] relates to KM12 colon.
In experiment [13] the test system is MOLT-4 leukemia.
Experiment [14] has as its system SK-MEL-28 melanoma.
The test system of experiment [15] is NCI-H522 lung.
In experiment [16] the test system is U251 CNS.
In experiment [17] the test system is CAKI-1 renal.

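Cells were grown in 96-well plates and exposed to each compound for 48 hours at five concentrations; endpoints were interpolated linearly between bracketing concentrations, or set to the highest concentration if not reached. TGI marks complete inhibition of growth.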

As a reminder, the TGI is the concentration giving total growth inhibition.

Turning to `CCCN1CN(C(C(=O)N[C@@H]2C(=O)N3C2SC(C)(C)C3C(=O)O)c2ccccc2)CSC1=S` (stereo partly drawn), the TGI in experiment [1], in experiment [2], in experiment [3], in [4], in experiment [5] and in experiment [6] was above 100 µM throughout. Besides, the concentration for total growth inhibition (TGI) in experiment [7], in experiment [8], in experiment [9], in [10], in experiment [11] and in [12] was above 100 µM in each case. Besides, the TGI is above 100 µM in experiment [13]; above 100 µM in experiment [14]; 81.5 µM in experiment [15]; above 100 µM in [16]; above 100 µM in [17].

Consider `C=CCNC(=S)N1c2ccccc2NC(=O)CC1C` (stereo not drawn), for which the TGI in experiment [1], in experiment [2], in experiment [3], in experiment [4], in experiment [5] and in experiment [6] was above 100 µM each time. Moreover, the total growth inhibition concentration (TGI) in [8], in experiment [9], in experiment [10], in [11], in [12] and in [13] was above 100 µM throughout. For the same compound, the TGI in experiment [14], in experiment [15] and in experiment [16] was above 100 µM each time.

For the compound `CCOC(=O)C(Cc1ccccc1)NC(=O)c1ccc(N=NN(C)C)cc1` (stereo not drawn), the TGI in experiment [1], in experiment [2], in experiment [3], in experiment [4], in [5] and in experiment [6] was above 100 µM each time. Moreover, the total growth inhibition concentration (TGI) in experiment [7], in experiment [8], in experiment [9], in [10], in [11] and in [12] was above 100 µM in each case. Further, the TGI in [13], in experiment [14], in experiment [15], in experiment [16] and in experiment [17] was above 100 µM in each case.

For the compound `CCOc1ccccc1N=Nc1c(-c2ccccc2)nn(C(=O)CC(=O)Nc2cccc(Cl)c2)c1-c1ccccc1`, the TGI in experiment [1], in experiment [2], in experiment [3], in experiment [4], in experiment [5] and in experiment [6] was above 100 µM throughout. Also, the total growth inhibition concentration (TGI) in experiment [7], in experiment [8], in [9], in experiment [10], in experiment [11] and in experiment [12] was above 100 µM throughout. Moreover, the TGI in [13], in experiment [14], in [15], in experiment [16] and in experiment [17] was above 100 µM in each case.

For `O=C(NCc1ccccc1)c1cc2cc(O)c(O)cc2cn1`, the concentration for total growth inhibition (TGI) in experiment [1] was above 100 µM; in [2], above 100 µM; in experiment [3], 70.4 µM; in [4], 75.1 µM; in [5] it was 56.6 µM; in [6] it was above 100 µM. Further, the TGI in experiment [7] is above 100 µM; in experiment [8] it was above 100 µM; in [9] it was above 100 µM; in experiment [10] it was 89.7 µM; in experiment [11] it was 73.2 µM; in experiment [12], above 100 µM. Further, the TGI in experiment [14] is above 100 µM; in experiment [15], above 100 µM; in experiment [16], above 100 µM; in experiment [17], 98.5 µM.

For `O=C(O)C(Cc1c[nH]c2ccccc12)N=Cc1nc(-c2ccccc2)oc1O` (stereo not drawn), the total growth inhibition concentration (TGI) in experiment [1], in experiment [2], in [3], in experiment [4], in experiment [5] and in experiment [6] was above 100 µM each time. Also, the concentration for total growth inhibition (TGI) in [7], in experiment [8], in experiment [9], in experiment [10], in [11] and in experiment [13] was above 100 µM in each case. Further, the total growth inhibition concentration (TGI) in experiment [14], in experiment [15] and in experiment [16] was above 100 µM throughout.

Take `COc1ccc(CNC2=C(NC(C)=O)C(=O)c3ccccc3C2=O)cc1`: the TGI is above 50 µM in experiment [1]; above 50 µM in experiment [2]; above 50 µM in [3]; above 50 µM in experiment [4]; 40.2 µM in experiment [5]; 18.1 µM in experiment [6]. The total growth inhibition concentration (TGI) was above 50 µM in [7]; 20.8 µM in experiment [8]; 15.2 µM in experiment [9]; above 50 µM in [10]; above 50 µM in [11]; above 50 µM in [12]. The TGI is 17.7 µM in experiment [13], above 50 µM in [14], 5.17 µM in [15] and 47.5 µM in experiment [16].

(Values after PubChem BioAssay (NCI).)
